Results published in PMC9081086, “Stapling strategy enables improvement of antitumor activity and proteolytic stability of host-defense peptide hymenochirin-1B” (RSC Advances, 2018).
Positions of bridges follow the written chain, without caps; N, C: chain ends. Non-standard residues stand in square brackets, D forms with d. Residues, ends and D or L forms follow the SMILES beside them. S5 = C=CCCC[C@](C)(N)C(=O)O

Assays:
[1] = Circular dichroism, α-helicity; assay type: physicochemical; conditions: CD, TFE/water (1:1), 50 μM peptide, 25 °C, 1 mm cuvette, calculated from [θ]222
Description: The linear and stapled peptides were dissolved in the trifluoroethanol (TFE) and water (1 : 1) to a final concentration of 50 μM, respectively. The CD spectra were obtained with 1 mm quartz cuvette on Jasco-815 spectropolarimeter at 25 °C. The measurement parameters were set up as follows: wavelength, 185–260 nm; step resolution, 0.5 nm; speed, 20 nm min^−1. All spectra were converted to a uniform scale of molar ellipticity after background subtraction. The curves were smoothed using standard parameters. The ellipticity in the acquired CD spectra was converted to the molar ellipticity using the equation: [θ] = θ/(10 × c × l), where, [θ] is the Molar ellipticity (deg cm^2. d mol^−1), θ is the observed ellipticity corrected for the buffer at a given wavelength (m deg), c is the molar concentration and l is the path length (cm). The helicity of each peptide was calculated as described in a literature based on the ellipticity of the peptide's spectrum at 222 nm and the number of amino acids in the peptide sequence.
Circular dichroism (CD) spectroscopy was used to investigate the secondary structures of the stapled and template peptides to probe structural changes induced by conformation constraint in a membrane-like milieu, including […] (TFE) and water (1 : 1). […] (Table 1, ESI ^†).

[2] = test system: human normal liver cell LO-2; test: MTT toxicity against normal cells, LO-2; assay type: cell-based; conditions: 96 h
Description: (§1) Anti-tumor activity was evaluated by the standard MTT assay with a slight modification measuring the median inhibitory concentration (IC50) values.[35] HCT-116 cells, HepG2 cells and A549 cells were plated in triplicate wells into a 96-well plate at 5 × 10^3/well and cultured routinely for 24 h. Cells were incubated with increasing concentrations of hymenochirin-1B and its analogs (0.1–30 μM) and continued to culture with DMEM plus 10% FBS at 37 °C and 5% CO2. After being incubated for 96 h, the absorbance A value was determined by MTT at 540 nm. The untreated HCT-116 cells, HepG2 cells and A549 cells were used as control. Each experiment was performed in duplicate. The inhibitory rate was calculated according to the following formula: inhibitory rate = (a value of the control group − a value of the study group)/a value of the control group × 100%.
(§2) To further research the selectivity of these peptides towards cancer cells over normal cells. The growth-inhibitory activities of peptides were evaluated using the 3-(4,5-dimethylthiazol-2-yl)-2,5-diphenyltetrazolium bromide (MTT) assay against three normal cells,[35] namely, human normal liver cell LO-2, human normal Lung cell BEAS-2 and human normal kidney cell 293 T (Table S2 ^†). The experiments procedure was performed just same as growth inhibition of the peptides against tumor cells. […] It might be due to the higher averaged hydrophobicity produced by six or nine additional methylene and two olefinic carbons to the peptide to increase toxicity to human normal cells. This situation may be resolved through the addition of polar character and glycosylation into the sequence to decrease the averaged hydrophobicity to improve the selectivity of these peptides towards cancer cells over normal cells. These modifications of these peptides are under way, and the present study was focused on the improved anti-tumor activity of template peptide hymenochirin-1B.

[3] = test system: human normal Lung cell BEAS-2; test: MTT toxicity against normal cells, BEAS-2B; assay type: cell-based; conditions: 96 h
Description: as §1, §2

[4] = test system: human normal kidney cell 293 T; test: MTT toxicity against normal cells, 293T; assay type: cell-based; conditions: 96 h
Description: as §1, §2

[5] = Protease resistance (trypsin degradation, HPLC); assay type: in vitro ADME; conditions: trypsin solution (5 ng/µL), room temperature, HPLC 214 nm, duplicate; for half-life at 0.1 mM: trypsin 5 ng/μL in 50 mM PBS with 2 mM CaCl2, pH 7.4 (method: trypsin buffer pH 8), peptide 0.1 mM final, sampled 0–3.5 h, HCl quench, read-out: half-life (t1/2) toward trypsin degradation (converted)
Description: The peptides were dissolved in PBS buffer solutions (50 mM, pH = 7.4) to a final concentration of 1 mM, respectively. Trypsin was dissolved in PBS buffer (50 mM, containing 2 mM of CaCl2, pH = 8) to a final concentration of 5 ng μL^−1. Then the peptide solutions (100 μL) were incubated with trypsin solution (1 mL) at room temperature. 100 μL of digestion mixture was taken at the 0, 0.5, 1.0, 1.5, 2.0, 2.5, 3.0, and 3.5 h marks, then quenched with 20 μL of hydrochloric acid (1 M). The solution of the trypsin peptide fragments was monitored by HPLC at different time to determine the fraction of protease degradation at 214 nm. Each experiment was performed in duplicate.
To assess the protease stability of the stapled peptides, we measured their susceptibility toward trypsin degradation at room temperature in PBS buffer (pH 7.4) with monitored by HPLC. Trypsin is a protease that predominantly cleaves at the carboxyl terminus of positive charge amino acids, such as arginine and lysine. […] Especially, only about 49% of bicyclic stapled peptide H-10 was cleaved after 3.5 h (Fig. 3 and S4 ^†).
Fig. 3 Proteolytic stability of peptides incubated in trypsin solution (5 ng μL^−1 in 50 mM PBS buffer, pH = 7.4) at a final concentration of 0.1 mM. […] The percent of residual peptide was monitored by Analytic HPLC. All experiments were repeated at least three times. H-0 represents hymenochirin-1B.

[6] = the molecule shown is the open-chain precursor; 33-membered ring; resin; 60 steps

SMILES	Helicity (%) [1] [%]	IC50 (μM) LO-2, toxicity against normal cells [2] [µM]	IC50 (μM) BEAS-2B, toxicity against normal cells [3] [µM]	IC50 (μM) 293T, toxicity against normal cells [4] [µM]	half-life at 0.1 mM [5] [min]	metabolised at 3.5 h, 0.1 mM ([5]; trypsin 5 ng/μL in 50 mM PBS, pH 7.4, peptide 0.1 mM final, 3.5 h, read-out: peptide cleaved by trypsin after 3.5 h) [%]	ring closure, overall yield [6] [%]
CC[C@H](C)[C@H](N)C(=O)N[C@@H](CCCCN)C(=O)N[C@@H](CC(C)C)C(=O)N[C@@H](CO)C(=O)N1CCC[C@H]1C(=O)N[C@@H](CCC(=O)O)C(=O)N[C@H](C(=O)N[C@@H](CCCCN)C(=O)N[C@@H](CC(=O)O)C(=O)N[C@@H](CC(N)=O)C(=O)N[C@@H](CC(C)C)C(=O)N[C@@H](CCCCN)C(=O)N[C@@H](CCCCN)C(=O)N[C@H](C(=O)N[C@@H](CC(C)C)C(=O)N[C@@H](CCCCN)C(=O)NCC(=O)N[C@@]1(C)CCCC=CCCC[C@@](C)(C(=O)N[C@H](C(=O)N[C@@H](C)C(=O)N[C@H](C(=O)N[C@@H](C)C(=O)N[C@@H](CCCCN)C(=O)N[C@@H](CCSC)C(=O)N[C@H](C(N)=O)C(C)C)C(C)C)[C@@H](C)CC)NC(=O)CNC(=O)[C@H](CCCCN)NC(=O)[C@H]([C@@H](C)CC)NC1=O)C(C)C)[C@@H](C)O [H-5] (H-IKLSPETKDNLKKVLKG[S5]IKG[S5]IAVAKMV-NH2; staple 18-22)	69.2	3.57 ± 0.52	5.76 ± 0.32	4.70 ± 0.32	168		
CC[C@H](C)[C@H](N)C(=O)N[C@@H](CCCCN)C(=O)N[C@@H](CC(C)C)C(=O)N[C@@H](CO)C(=O)N1CCC[C@H]1C(=O)N[C@@]1(C)CCCC=CCCC[C@@](C)(C(=O)N[C@@H](CC(C)C)C(=O)N[C@@H](CCCCN)C(=O)N[C@@H](CCCCN)C(=O)N[C@H](C(=O)N[C@@H](CC(C)C)C(=O)N[C@@H](CCCCN)C(=O)NCC(=O)N[C@@]2(C)CCCC=CCCC[C@@](C)(C(=O)N[C@H](C(=O)N[C@@H](C)C(=O)N[C@H](C(=O)N[C@@H](C)C(=O)N[C@@H](CCCCN)C(=O)N[C@@H](CCSC)C(=O)N[C@H](C(N)=O)C(C)C)C(C)C)[C@@H](C)CC)NC(=O)CNC(=O)[C@H](CCCCN)NC(=O)[C@H]([C@@H](C)CC)NC2=O)C(C)C)NC(=O)[C@H](CC(=O)O)NC(=O)[C@H](CCCCN)NC(=O)[C@H]([C@@H](C)O)NC1=O [H-10] (H-IKLSP[S5]TKD[S5]LKKVLKG[S5]IKG[S5]IAVAKMV-NH2; staple 6-10, 18-22)	73.3	8.78 ± 0.32	5.52 ± 0.42	10.42 ± 0.25		~49	
CC[C@H](C)[C@H](N)C(=O)N[C@@H](CCCCN)C(=O)N[C@@H](CC(C)C)C(=O)N[C@@H](CO)C(=O)N1CCC[C@H]1C(=O)N[C@@H](CCC(=O)O)C(=O)N[C@H](C(=O)N[C@@H](CCCCN)C(=O)N[C@@H](CC(=O)O)C(=O)N[C@@H](CC(N)=O)C(=O)N[C@@H](CC(C)C)C(=O)N[C@@H](CCCCN)C(=O)N[C@@H](CCCCN)C(=O)N[C@H](C(=O)N[C@@H](CC(C)C)C(=O)N[C@@H](CCCCN)C(=O)NCC(=O)N[C@@H](C)C(=O)N[C@H](C(=O)N[C@@H](CCCCN)C(=O)NCC(=O)N[C@@H](C)C(=O)N[C@H](C(=O)N[C@@H](C)C(=O)N[C@H](C(=O)N[C@@H](C)C(=O)N[C@@H](CCCCN)C(=O)N[C@@H](CCSC)C(=O)N[C@H](C(N)=O)C(C)C)C(C)C)[C@@H](C)CC)[C@@H](C)CC)C(C)C)[C@@H](C)O [Hymenochirin-1B] (H-IKLSPETKDNLKKVLKGAIKGAIAVAKMV-NH2)	48.7	23.98 ± 0.32	9.24 ± 0.25	11.12 ± 0.35	16.8		
CC[C@H](C)[C@H](N)C(=O)N[C@@H](CCCCN)C(=O)N[C@@H](CC(C)C)C(=O)N[C@@H](CO)C(=O)N1CCC[C@H]1C(=O)N[C@@]1(C)CCCC=CCCC[C@@](C)(C(=O)N[C@@H](CC(C)C)C(=O)N[C@@H](CCCCN)C(=O)N[C@@H](CCCCN)C(=O)N[C@H](C(=O)N[C@@H](CC(C)C)C(=O)N[C@@H](CCCCN)C(=O)NCC(=O)N[C@@H](C)C(=O)N[C@H](C(=O)N[C@@H](CCCCN)C(=O)NCC(=O)N[C@@H](C)C(=O)N[C@H](C(=O)N[C@@H](C)C(=O)N[C@H](C(=O)N[C@@H](C)C(=O)N[C@@H](CCCCN)C(=O)N[C@@H](CCSC)C(=O)N[C@H](C(N)=O)C(C)C)C(C)C)[C@@H](C)CC)[C@@H](C)CC)C(C)C)NC(=O)[C@H](CC(=O)O)NC(=O)[C@H](CCCCN)NC(=O)[C@H]([C@@H](C)O)NC1=O [H-2] (H-IKLSP[S5]TKD[S5]LKKVLKGAIKGAIAVAKMV-NH2; staple 6-10)	49.3	3.40 ± 0.32	3.12 ± 0.52	3.20 ± 0.33	30		
C=CCCCCCC[C@@](C)(NC(=O)[C@H](CCCCNC(=O)OC(C)(C)C)NC(=O)[C@H](CC(C)C)NC(=O)[C@@H](NC(=O)[C@H](CCCCNC(=O)OC(C)(C)C)NC(=O)[C@H](CCCCNC(=O)OC(C)(C)C)NC(=O)[C@H](CC(C)C)NC(=O)[C@H](CC(=O)NC(c1ccccc1)(c1ccccc1)c1ccccc1)NC(=O)[C@H](CC(=O)OC(C)(C)C)NC(=O)[C@H](CCCCNC(=O)OC(C)(C)C)NC(=O)[C@@H](NC(=O)[C@H](CCC(=O)OC(C)(C)C)NC(=O)[C@@H]1CCCN1C(=O)[C@H](COC(C)(C)C)NC(=O)[C@H](CC(C)C)NC(=O)[C@H](CCCCNC(=O)OC(C)(C)C)NC(=O)[C@@H](NC(=O)OCC1c2ccccc2-c2ccccc21)[C@@H](C)CC)[C@@H](C)OC(C)(C)C)C(C)C)C(=O)N[C@@H](C)C(=O)N[C@H](C(=O)N[C@@H](CCCCNC(=O)OC(C)(C)C)C(=O)NCC(=O)N[C@@H](C)C(=O)N[C@H](C(=O)N[C@@](C)(CCCC=C)C(=O)N[C@H](C(=O)N[C@@H](C)C(=O)N[C@@H](CCCCNC(=O)OC(C)(C)C)C(=O)N[C@@H](CCSC)C(=O)N[C@H](C(N)=O)C(C)C)C(C)C)[C@@H](C)CC)[C@@H](C)CC							6.72
